Reference: US20230265151A1, “GIP/GLP1 CO-AGONIST COMPOUNDS” (priority 2020, published 2023)
Read-outs that look alike come from different tables or passages of the source.

Assays:
hGLP-1R = hGLP-1R (Homo sapiens, UniProt P43220); experiment: Functional cAMP formation (HTRF) in HEK-293 clonal cells expressing hGLP-1R, 0.1% bovine casein, without or with 1.0% human serum albumin; type: cell-based; parameters: expressed in transfected cells; conditions: for Emax: read-out: hGLP-1R Emax, % ± SEM; for EC50: read-out: hGLP-1R EC50, nM (SEM, n)
Method in brief: (§1)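 Readings of the HTRF 665/620 nm ratio, which falls as cAMP rises, were converted to nM cAMP using a standard curve after 30 min peptide exposure at 37° C.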

[1] = molecular target: T1, human Gcg receptor (hGcgR) (Homo sapiens, UniProt P47871); experiment: [125I]-Glucagon binding, SPA with membranes of HEK293 cells expressing hGcgR; conditions: human GcgR; geometric mean (SEM, n); read-out: Binding Affinity Ki, nM (SEM, n) hGCGR
T1 construct: expressed in transfected cells; crude membranes

hGCGR = molecular target: T2, hGCGR (Homo sapiens, UniProt P47871); experiment: Functional cAMP formation (HTRF) in HEK-293 clonal cells expressing hGCGR, 0.1% bovine casein, without or with 1.0% human serum albumin; type: cell-based; conditions: read-out: hGCGR EC50, nM (SEM, n)
T2 construct: expressed in transfected cells
Method in brief: as §1

[2] = molecular target: T3, human GIP receptor (hGIPR) (Homo sapiens, UniProt P48546); experiment: [125I]-GIP binding, SPA with membranes of CHO cells expressing hGIPR; conditions: human GIPR; geometric mean (SEM, n); read-out: Binding Affinity Ki, nM (SEM, n) hGIPR
T3 construct: expressed in transfected cells; crude membranes
T3 sequence (P48546 22-466): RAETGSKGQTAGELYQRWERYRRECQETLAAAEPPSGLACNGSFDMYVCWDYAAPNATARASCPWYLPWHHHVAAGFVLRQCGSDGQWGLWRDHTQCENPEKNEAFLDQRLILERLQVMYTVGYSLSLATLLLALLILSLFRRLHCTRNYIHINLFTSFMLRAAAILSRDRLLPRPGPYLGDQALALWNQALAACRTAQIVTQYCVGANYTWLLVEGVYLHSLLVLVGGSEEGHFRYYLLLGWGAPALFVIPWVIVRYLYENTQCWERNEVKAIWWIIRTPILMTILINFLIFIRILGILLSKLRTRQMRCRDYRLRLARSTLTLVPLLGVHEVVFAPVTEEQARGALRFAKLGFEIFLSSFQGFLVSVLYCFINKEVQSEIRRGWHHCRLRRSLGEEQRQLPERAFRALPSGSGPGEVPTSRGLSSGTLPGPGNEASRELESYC

hGIPR = molecular target: T4, hGIPR (Homo sapiens, UniProt P48546); experiment: Functional cAMP formation (HTRF) in HEK-293 clonal cells expressing hGIPR, 0.1% bovine casein, without or with 1.0% human serum albumin; type: cell-based; conditions: for Emax: read-out: hGIPR Emax, % ± SEM; for EC50: read-out: hGIPR EC50, nM (SEM, n)
T4 construct: expressed in transfected cells
T4 sequence (P48546 22-466): T3 sequence (P48546 22-466)
Method in brief: as §1

[3] = HEK293, cAMP, 37° C., 0.1% bovine casein, percent of maximal response to GLP-1(7-36)NH2, arithmetic mean
[4] = cAMP, 37° C., 0.1% bovine casein (no human serum albumin), geometric mean
[5] = cAMP, 37° C., 0.1% bovine casein and 1.0% human serum albumin, geometric mean (SEM, n)
[6] = HEK293, cAMP, 37° C., 0.1% bovine casein and 1.0% human serum albumin, percent of maximal response to GIP(1-42)NH2
[7] = 0.1% bovine casein and 1.0% human serum albumin, 37° C., geometric mean
[8] = cAMP, incubated at 37° C., 0.1% bovine casein (no human serum albumin), geometric mean
[9] = HEK293, 0.1% bovine casein and 1.0% human serum albumin, 37° C., percent of maximal response to GIP(1-42)NH2
[10] = HEK293, percent of maximal response to GIP(1-42)NH2, 37° C., 0.1% bovine casein, arithmetic mean

hGLP-1R, sequence (P43220 24-463): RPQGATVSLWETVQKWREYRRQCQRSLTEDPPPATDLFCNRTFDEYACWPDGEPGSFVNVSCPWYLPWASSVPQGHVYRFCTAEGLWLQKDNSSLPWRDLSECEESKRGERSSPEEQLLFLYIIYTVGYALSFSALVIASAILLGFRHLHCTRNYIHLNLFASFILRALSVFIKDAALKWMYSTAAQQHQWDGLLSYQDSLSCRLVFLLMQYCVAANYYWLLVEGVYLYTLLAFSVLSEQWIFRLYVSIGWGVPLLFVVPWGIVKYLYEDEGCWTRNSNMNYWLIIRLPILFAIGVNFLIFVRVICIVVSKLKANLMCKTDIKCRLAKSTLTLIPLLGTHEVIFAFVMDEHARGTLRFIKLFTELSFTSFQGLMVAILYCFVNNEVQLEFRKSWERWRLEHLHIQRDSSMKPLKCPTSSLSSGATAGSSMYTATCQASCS
T1 sequence (P47871 26-477): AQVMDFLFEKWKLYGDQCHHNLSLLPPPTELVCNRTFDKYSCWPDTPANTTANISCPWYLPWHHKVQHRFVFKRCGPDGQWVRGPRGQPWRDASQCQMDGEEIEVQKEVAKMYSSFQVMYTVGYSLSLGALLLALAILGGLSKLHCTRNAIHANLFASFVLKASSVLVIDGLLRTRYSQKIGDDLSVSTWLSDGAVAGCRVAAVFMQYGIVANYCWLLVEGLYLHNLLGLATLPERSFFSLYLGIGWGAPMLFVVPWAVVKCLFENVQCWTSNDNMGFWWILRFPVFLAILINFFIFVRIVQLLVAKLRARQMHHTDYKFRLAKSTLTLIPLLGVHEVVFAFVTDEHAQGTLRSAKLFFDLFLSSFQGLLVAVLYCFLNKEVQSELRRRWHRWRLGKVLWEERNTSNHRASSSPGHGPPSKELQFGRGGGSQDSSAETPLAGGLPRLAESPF
T2 sequence (P47871 26-477): as above

Question: With `CC[C@H](C)[C@H](NC(=O)[C@H](CC(C)C)NC(=O)[C@](C)(Cc1ccc(O)cc1)NC(=O)[C@H](CCCCNC(=O)COCCOCCNC(=O)COCCOCCNC(=O)CC[C@H](NC(=O)CCCCCCCCCCCCC(=O)O)C(=O)O)NC(=O)[C@@H](NC(=O)[C@H](Cc1ccccc1)NC(=O)[C@H](CCC(=O)O)NC(=O)C(C)(C)NC(=O)[C@H](CCC(N)=O)NC(=O)[C@H](C)NC(=O)[C@H](CCC(N)=O)NC(=O)[C@H](CCCN)NC(=O)[C@H](CC(=O)O)NC(=O)[C@H](CC(C)C)NC(=O)[C@](C)(CC(C)C)NC(=O)[C@@H](NC(=O)C(C)(C)NC(=O)[C@H](Cc1ccncc1)NC(=O)[C@H](CC(=O)O)NC(=O)[C@H](CO)NC(=O)[C@@H](NC(=O)[C@](C)(Cc1ccccc1F)NC(=O)[C@@H](NC(=O)CNC(=O)[C@H](CCC(=O)O)NC(=O)C(C)(C)NC(=O)[C@@H](N)Cc1ccc(O)cc1)[C@@H](C)O)[C@@H](C)O)[C@@H](C)CC)[C@@H](C)CC)C(=O)N[C@@H](CCCCNC(=O)COCCOCCNC(=O)COCCOCCNC(=O)CC[C@H](NC(=O)CCCCCCCCCCCCC(=O)O)C(=O)O)C(=O)NCC(=O)NCC(=O)N1CCC[C@H]1C(=O)N[C@@H](CO)C(=O)N[C@@H](CO)C(=O)NCC(=O)N[C@@H](C)C(=O)N1CCC[C@H]1C(=O)N1CCC[C@H]1C(=O)N1CCC[C@H]1C(=O)N[C@@H](CO)C(N)=O` [Example 411] as the molecule, how does the Emax (hGLP-1R; [3]) read?
Answer: 110%

Question: What about the EC50 (hGLP-1R; [4]) of the same molecule?
Answer: 0.167 nM

Question: And the EC50 (hGLP-1R; [5])?
Answer: 11.4 nM

Question: What about the Ki [1] of the same molecule?
Answer: > 957 nM

Question: And the EC50 (hGCGR; [4])?
Answer: > 9950 nM

Question: What about the EC50 (hGCGR; [5]) of the same molecule?
Answer: > 9950 nM

Question: What about the Ki [2] of the same molecule?
Answer: 0.0375 nM

Question: What about the Emax (hGIPR; [6]) of the same molecule?
Answer: 84.6%

Question: What about the EC50 (hGIPR; [4]) of the same molecule?
Answer: 0.0102 nM

Question: What about the EC50 (hGIPR; [5]) of the same molecule?
Answer: 1.09 nM

Question: For `CC[C@H](C)[C@H](NC(=O)[C@H](CC(C)C)NC(=O)[C@](C)(Cc1ccc(O)cc1)NC(=O)[C@@H](CCC(=O)O)NC(=O)[C@@H](NC(=O)[C@H](Cc1cccc(F)c1)NC(=O)[C@H](CCC(=O)O)NC(=O)C(C)(C)NC(=O)[C@H](CCC(N)=O)NC(=O)[C@H](C)NC(=O)[C@H](CCCCNC(=O)COCCOCCNC(=O)COCCOCCNC(=O)CC[C@H](NC(=O)CCCCCCCCCCCCC(=O)O)C(=O)O)NC(=O)[C@H](CCCN)NC(=O)[C@H](CC(=O)O)NC(=O)[C@H](CC(C)C)NC(=O)[C@](C)(CC(C)C)NC(=O)[C@@H](NC(=O)[C@H](CO)NC(=O)[C@H](Cc1ccncc1)NC(=O)[C@H](CC(=O)O)NC(=O)[C@H](CO)NC(=O)[C@@H](NC(=O)[C@](C)(Cc1ccccc1F)NC(=O)[C@@H](NC(=O)CNC(=O)[C@H](CCC(=O)O)NC(=O)C(C)(C)NC(=O)[C@@H](N)Cc1ccc(O)cc1)[C@@H](C)O)[C@@H](C)O)[C@@H](C)CC)[C@@H](C)CC)C(=O)N[C@@H](CCC(=O)O)C(=O)NCC(=O)NCC(=O)N[C@@H](CCCCNC(=O)COCCOCCNC(=O)COCCOCCNC(=O)CC[C@H](NC(=O)CCCCCCCCCCCCC(=O)O)C(=O)O)C(=O)N[C@@H](CO)C(=O)N[C@@H](CO)C(=O)NCC(=O)N[C@@H](C)C(=O)N1CCC[C@H]1C(=O)N1CCC[C@H]1C(=O)N1CCC[C@H]1C(=O)N[C@@H](CO)C(N)=O` [Example 64], which EC50 (hGLP-1R; [7]) is on record?
Answer: 27 nM

Question: What about the Emax (hGLP-1R; HEK293, 0.1% bovine casein and 1.0% human serum albumin, 37° C., percent of maximal response to GLP-1(7-36)NH2) of the same molecule?
Answer: 87.8 ± 0.301%

Question: What about the Emax (hGLP-1R; HEK293, percent of maximal response to GLP-1(7-36)NH2, 37° C., 0.1% bovine casein, arithmetic mean) of the same molecule?
Answer: 97.3 ± 4.13%

Question: And the EC50 (hGLP-1R; [8])?
Answer: 0.557 nM

Question: What about the Ki [1] of the same molecule?
Answer: > 4780 nM

Question: What about the EC50 (hGCGR; [7]) of the same molecule?
Answer: > 9950 nM

Question: And the EC50 (hGCGR; [8])?
Answer: > 9950 nM

Question: And the Ki [2]?
Answer: 0.161 nM

Question: And the Emax (hGIPR; [9])?
Answer: 90.5 ± 3.44%

Question: And the Emax (hGIPR; [10])?
Answer: 92.9 ± 3.06%

Question: And the EC50 (hGIPR; [8])?
Answer: 0.0158 nM

Question: For `CC[C@H](C)[C@H](NC(=O)[C@H](CC(C)C)NC(=O)[C@](C)(Cc1ccc(O)cc1)NC(=O)[C@@H](CCC(=O)O)NC(=O)[C@@H](NC(=O)[C@H](Cc1ccccc1)NC(=O)[C@H](CCC(=O)O)NC(=O)C(C)(C)NC(=O)[C@H](CCC(N)=O)NC(=O)[C@H](C)NC(=O)[C@H](CCCCNC(=O)[C@@H](N)CCCCNC(=O)COCCOCCNC(=O)COCCOCCNC(=O)CC[C@H](NC(=O)CCCCCCCCCCCCC(=O)O)C(=O)O)NC(=O)[C@H](CCCN)NC(=O)[C@H](CC(=O)O)NC(=O)[C@H](CC(C)C)NC(=O)[C@](C)(CC(C)C)NC(=O)[C@@H](NC(=O)[C@H](CO)NC(=O)[C@H](Cc1ccncc1)NC(=O)[C@H](CC(=O)O)NC(=O)[C@H](CO)NC(=O)[C@@H](NC(=O)[C@](C)(Cc1ccccc1F)NC(=O)[C@@H](NC(=O)CNC(=O)[C@H](CCC(=O)O)NC(=O)C(C)(C)NC(=O)[C@@H](N)Cc1ccc(O)cc1)[C@@H](C)O)[C@@H](C)O)[C@@H](C)CC)[C@@H](C)CC)C(=O)N[C@@H](CCC(=O)O)C(=O)NCC(=O)NCC(=O)N[C@@H](CCCCNC(=O)[C@@H](N)CCCCNC(=O)COCCOCCNC(=O)COCCOCCNC(=O)CC[C@H](NC(=O)CCCCCCCCCCCCC(=O)O)C(=O)O)C(=O)N[C@@H](CO)C(=O)N[C@@H](CO)C(=O)NCC(=O)N[C@@H](C)C(=O)N1CCC[C@H]1C(=O)N1CCC[C@H]1C(=O)N1CCC[C@H]1C(=O)N[C@@H](CO)C(N)=O` [Example 37], which EC50 (hGLP-1R; [7]) is on record?
Answer: 17 nM

Question: And the Ki [1]?
Answer: > 957 nM

Question: And the EC50 (hGCGR; [7])?
Answer: > 9950 nM

Question: What about the EC50 (hGCGR; [8]) of the same molecule?
Answer: > 9950 nM

Question: And the Ki [2]?
Answer: 0.171 nM

Question: And the EC50 (hGIPR; [7])?
Answer: 0.306 nM

Question: What about the Emax (hGIPR; [9]) of the same molecule?
Answer: 88.5 ± 0.188%

Question: What about the Emax (hGIPR; [10]) of the same molecule?
Answer: 91.2 ± 3.67%

Question: And the EC50 (hGIPR; [8])?
Answer: 0.0211 nM

Question: `CC[C@H](C)[C@H](NC(=O)[C@H](CC(C)C)NC(=O)[C@](C)(Cc1ccc(O)cc1)NC(=O)[C@H](CCCCNC(=O)COCCOCCNC(=O)COCCOCCNC(=O)COCCOCCNC(=O)CC[C@H](NC(=O)CCCCCCCCCCCCC(=O)O)C(=O)O)NC(=O)[C@@H](NC(=O)[C@H](Cc1ccccc1)NC(=O)[C@H](CCC(=O)O)NC(=O)C(C)(C)NC(=O)[C@H](CCC(N)=O)NC(=O)[C@H](C)NC(=O)[C@H](CCC(N)=O)NC(=O)[C@H](CCCN)NC(=O)[C@H](CC(=O)O)NC(=O)[C@H](CC(C)C)NC(=O)[C@](C)(CC(C)C)NC(=O)[C@@H](NC(=O)C(C)(C)NC(=O)[C@H](Cc1ccncc1)NC(=O)[C@H](CC(=O)O)NC(=O)[C@H](CO)NC(=O)[C@@H](NC(=O)[C@](C)(Cc1ccccc1F)NC(=O)[C@@H](NC(=O)CNC(=O)[C@H](CCC(=O)O)NC(=O)C(C)(C)NC(=O)[C@@H](N)Cc1ccc(O)cc1)[C@@H](C)O)[C@@H](C)O)[C@@H](C)CC)[C@@H](C)CC)C(=O)N[C@@H](CCCCNC(=O)COCCOCCNC(=O)COCCOCCNC(=O)COCCOCCNC(=O)CC[C@H](NC(=O)CCCCCCCCCCCCC(=O)O)C(=O)O)C(=O)NCC(=O)NCC(=O)N1CCC[C@H]1C(=O)N[C@@H](CO)C(=O)N[C@@H](CO)C(=O)NCC(=O)N[C@@H](C)C(=O)N1CCC[C@H]1C(=O)N1CCC[C@H]1C(=O)N1CCC[C@H]1C(=O)N[C@@H](CO)C(N)=O` [Example 460] was tested. Which Emax (hGLP-1R; [3]) did it give?
Answer: 111%

Question: What about the EC50 (hGLP-1R; [4]) of the same molecule?
Answer: 0.187 nM

Question: And the EC50 (hGLP-1R; [5])?
Answer: 6.31 nM

Question: What about the Ki [1] of the same molecule?
Answer: > 959 nM

Question: And the EC50 (hGCGR; [4])?
Answer: > 9950 nM

Question: And the EC50 (hGCGR; [5])?
Answer: > 9950 nM

Question: And the Ki [2]?
Answer: 0.0528 nM

Question: And the Emax (hGIPR; [6])?
Answer: 89.5%

Question: What about the EC50 (hGIPR; [4]) of the same molecule?
Answer: 0.0108 nM
